Source: patent US6455546B2, “Method for promoting ovulation, parturition, and lactation in mammals” (Clemson University, priority 1996, dated 2002)
“And” between values parts separate entries of the source, which are not always exact repeats. Equal values may be shown once. “Also recorded” adds a separate entry of the source.

Key:
agalactic mares = experiment: Preparation for parturition, udder development and lactation in agalactic mares; type: in vivo;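 further: treated mares were free of fescue toxicosis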
mares = experiment: Stimulation of follicular growth and ovulation in mares out of season
quarter horse mares = experiment: Daily feed intake of mares; type: in vivo
From the text: Ten quarter horse mares were housed in individual pens and fed a standard feed concentrate weighing 0.5% of each mares' initial body weight at approximately 8:00 A.M. each day during the study. In addition, hay was fed to the mare ad libitum each day. During the night, the mares were placed in a dry lot having no access to food.

animals = animals exposed to other D2 receptor antagonists; cited from earlier work
[1] = individual agalactic mares, 1.1 mg/kg per day orally, 1.1 mg/kg/day
[2] = individual mares, domperidone .55 mg/kg orally daily in molasses, January and February

SMILES	Milk production (agalactic mares; horses, orally about 0.2 mg/kg to about 3.3 mg/kg of body weight)	Did Mare Have A Live Foal? (agalactic mares; individual agalactic mares, 1.1 mg/kg per day orally)	Days Before (−) or After Expected Foaling that Mare Foaled (agalactic mares; [1])	Mare's Udder Development After Treatment Began (agalactic mares; [1])	Was Mare Lactating Normally After Foaling? (agalactic mares; [1])	Adverse side effects (agalactic mares; subcutaneous, amounts greater than 1.32 mg/kg)	Mares treated that ovulated (mares; 0.55 mg/kg orally daily, only two of nine control mares ovulated)	Date of Ovulation (mares; [2])	No. of Days of Treatment Before Ovulation (mares; [2])	Neurological side effects (mares; mares, 0.55 mg/kg orally daily, during the study)	Daily hay consumption after treatment began (quarter horse mares; each of the ten mares, 1.1 mg/kg orally daily)	Avg. Hay Consumption After Treatment (quarter horse mares; individual mares, 1.1 mg/kg orally daily for two weeks, hay ad libitum, 1.1 mg/kg)	Neuroleptic side effects (animals)
O=c1[nH]c2ccccc2n1CCCN1CCC(n2c(=O)[nH]c3cc(Cl)ccc32)CC1 [domperidone]	stimulated	Yes	−1 Days and +8 Days and +15 Days and +14 Days and 0 Days and −3 Days (2×) and +3 Days and −2 Days and +12 Days	Increased Weekly; also recorded: Developed Adequately; also recorded: Very Slight; also recorded: Gradual Development; also recorded: Normal Development; also recorded: No Response; also recorded: Immediate; also recorded: Dripping Milk 5th Day	Yes (11×) and No. but drug	without any adverse side effects	nine of the ten	Feb. 9; also recorded: Feb. 6; also recorded: Feb. 12; also recorded: Feb. 8; also recorded: Feb. 15; also recorded: Feb. 5; also recorded: Feb. 7; also recorded: Feb. 13; also recorded: d/n ovulate; also recorded: Feb. 10	18 Days (2×) and 21 Days and 17 Days and 24 Days and 14 Days and 16 Days and 22 Days and d/n ovulate and 19 Days	No neurological side effects were observed	increased	13.0 lbs and 12.2 lbs and 14.1 lbs (2×) and 13.2 lbs and 14.2 lbs and 12.3 lbs and 13.5 lbs and 15.0 lbs and 12.1 lbs	
CCN(CC)CCNC(=O)c1cc(Cl)c(N)cc1OC [metoclopramide]													neuroleptic side effects have been observed
CCN1CCCC1CNC(=O)c1cc(S(N)(=O)=O)ccc1OC (centres unmarked) [sulpiride]													neuroleptic side effects have been observed
